Test results from PubChem BioAssay AID2060896 (Molecular Pharmacology Branch, DTP, NCI, 2025).

System: 941728-121-R-J1-PDC complex spheroid viability
Experiment: Anticancer human tumor 941728-121-R-J1-PDC patient-derived lung adenocarcinoma cell line growth inhibition [RAS]
Conditions: for IC50: curve of first compound; for viability, T/C: stronger effect = lower value
How it was run: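 Multi-cell-type spheroids: tumor cells plus HUVEC endothelial cells and mesenchymal stem cells. RAS-pathway inhibitors were combined with targeted agents, each dosed in half-log steps down from clinical Cmax, or from 10 microM when Cmax was unknown.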

[1] = second compound 0.000949 µM, first compound 0.0316 µM
[2] = second compound 0.000949 µM, first compound 0.1 µM
[3] = second compound 0.000949 µM, first compound 0.316 µM
[4] = second compound 0.000949 µM, first compound 1 µM
[5] = second compound 0.003 µM, first compound 0.0316 µM
[6] = second compound 0.003 µM, first compound 0.1 µM
[7] = second compound 0.003 µM, first compound 0.316 µM
[8] = second compound 0.003 µM, first compound 1 µM
[9] = second compound 0.00949 µM, first compound 0.0316 µM
[10] = second compound 0.00949 µM, first compound 0.1 µM
[11] = second compound 0.00949 µM, first compound 0.316 µM
[12] = second compound 0.00949 µM, first compound 1 µM
[13] = second compound 0.03 µM, first compound 0.0316 µM
[14] = second compound 0.03 µM, first compound 0.1 µM
[15] = second compound 0.03 µM, first compound 0.316 µM
[16] = second compound 0.03 µM, first compound 1 µM
[17] = second compound 0.0949 µM, first compound 0.0316 µM
[18] = second compound 0.0949 µM, first compound 0.1 µM
[19] = second compound 0.0949 µM, first compound 0.316 µM
[20] = second compound 0.0949 µM, first compound 1 µM
[21] = second compound 0.3 µM, first compound 0.0316 µM
[22] = second compound 0.3 µM, first compound 0.1 µM
[23] = second compound 0.3 µM, first compound 0.316 µM
[24] = second compound 0.3 µM, first compound 1 µM
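Note: spheroids exposed to compounds for 7 days before readout.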
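Throughout, for viability, T/C: 100% = DMSO vehicle control viability.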

With `CC1(O)CCCC1n1c(=O)c(C(F)F)cc2cnc(NC3CCN(S(C)(=O)=O)CC3)nc21` (stereo unspecified) + CCn1c(-c2cccnc2C(C)OC)c2c3cc(ccc31)N1CCOC(CC(NC(=O)C(C(C)C)N(C)C(=O)C3(F)CCN(C(=O)C#CC(C)(C)N(C)C)CC3)C(=O)N3CCCC(N3)C(=O)OCC(C)(C)C2)C1 the IC50 (second compound 0.000949 µM) was under 31.6 nM, the IC50 (second compound 0.003 µM) was under 31.6 nM and the IC50 (second compound 0.00949 µM) was under 31.6 nM. For the same compound, the IC50 (second compound 0.03 µM) was under 31.6 nM, the IC50 (second compound 0.0949 µM) was under 31.6 nM and the IC50 (second compound 0.3 µM) was under 31.6 nM. It also gave a viability, T/C [1] of 22.3%, a viability, T/C [2] of 23.9% and a viability, T/C [3] of 24.1%. For the same compound, the viability, T/C [4] was 24.3%, the viability, T/C (second compound 0.000949 µM, first compound 3.16 µM) was 26% and the viability, T/C (second compound 0.000949 µM, first compound 10 µM) was 29.7%. It also gave a viability, T/C [5] of 24%, a viability, T/C [6] of 20.8% and a viability, T/C [7] of 24.2%. For the same compound, the viability, T/C [8] was 25.1%, the viability, T/C (second compound 0.003 µM, first compound 3.16 µM) was 24.6% and the viability, T/C (second compound 0.003 µM, first compound 10 µM) was 30.1%. It also gave a viability, T/C [9] of 21.4%, a viability, T/C [10] of 26.1% and a viability, T/C [11] of 21.9%. It also gave a viability, T/C [12] of 24.4%, a viability, T/C (second compound 0.00949 µM, first compound 3.16 µM) of 22.6% and a viability, T/C (second compound 0.00949 µM, first compound 10 µM) of 30.1%. For the same compound, the viability, T/C [13] was 23.1%, the viability, T/C [14] was 23% and the viability, T/C [15] was 23.6%. For the same compound, the viability, T/C [16] was 27.4%, the viability, T/C (second compound 0.03 µM, first compound 3.16 µM) was 20.1% and the viability, T/C (second compound 0.03 µM, first compound 10 µM) was 31%. For the same compound, the viability, T/C [17] was 21.5%, the viability, T/C [18] was 22.3% and the viability, T/C [19] was 26.5%. The viability, T/C [20] was 27.9%, the viability, T/C (second compound 0.0949 µM, first compound 3.16 µM) was 17.9% and the viability, T/C (second compound 0.0949 µM, first compound 10 µM) was 28.8%. For the same compound, the viability, T/C [21] was 22.5%, the viability, T/C [22] was 23.4% and the viability, T/C [23] was 23%. The viability, T/C [24] was 26.1%, the viability, T/C (second compound 0.3 µM, first compound 3.16 µM) was 20.8% and the viability, T/C (second compound 0.3 µM, first compound 10 µM) was 25.9%.
In the case of `CCc1c2c(nc3ccc(O)cc13)-c1cc3c(c(=O)n1C2)COC(=O)[C@]3(O)CC` + CCn1c(-c2cccnc2C(C)OC)c2c3cc(ccc31)N1CCOC(CC(NC(=O)C(C(C)C)N(C)C(=O)C3(F)CCN(C(=O)C#CC(C)(C)N(C)C)CC3)C(=O)N3CCCC(N3)C(=O)OCC(C)(C)C2)C1, the IC50 (second compound 0.000949 µM) is reported as under 0.949 nM, the IC50 (second compound 0.003 µM) is reported as under 0.949 nM and the IC50 (second compound 0.00949 µM) is reported as under 0.949 nM. The IC50 (second compound 0.03 µM) was under 0.949 nM, the IC50 (second compound 0.0949 µM) was under 0.949 nM and the IC50 (second compound 0.3 µM) was under 0.949 nM. For the same compound, the viability, T/C (second compound 0.000949 µM, first compound 0.000949 µM) was 23.7%, the viability, T/C (second compound 0.000949 µM, first compound 0.003 µM) was 18.9% and the viability, T/C (second compound 0.000949 µM, first compound 0.00949 µM) was 14.2%. It also gave a viability, T/C (second compound 0.000949 µM, first compound 0.03 µM) of 17.5%, a viability, T/C (second compound 0.000949 µM, first compound 0.0949 µM) of 11.7% and a viability, T/C (second compound 0.000949 µM, first compound 0.3 µM) of 6.82%. The viability, T/C (second compound 0.003 µM, first compound 0.000949 µM) was 25.2%, the viability, T/C (second compound 0.003 µM, first compound 0.003 µM) was 21.1% and the viability, T/C (second compound 0.003 µM, first compound 0.00949 µM) was 14.8%. For the same compound, the viability, T/C (second compound 0.003 µM, first compound 0.03 µM) was 14.4%, the viability, T/C (second compound 0.003 µM, first compound 0.0949 µM) was 12.2% and the viability, T/C (second compound 0.003 µM, first compound 0.3 µM) was 7.12%. The viability, T/C (second compound 0.00949 µM, first compound 0.000949 µM) was 22.4%, the viability, T/C (second compound 0.00949 µM, first compound 0.003 µM) was 16.3% and the viability, T/C (second compound 0.00949 µM, first compound 0.00949 µM) was 17.1%. The viability, T/C (second compound 0.00949 µM, first compound 0.03 µM) was 13.5%, the viability, T/C (second compound 0.00949 µM, first compound 0.0949 µM) was 11.2% and the viability, T/C (second compound 0.00949 µM, first compound 0.3 µM) was 7.23%. For the same compound, the viability, T/C (second compound 0.03 µM, first compound 0.000949 µM) was 22.5%, the viability, T/C (second compound 0.03 µM, first compound 0.003 µM) was 18.8% and the viability, T/C (second compound 0.03 µM, first compound 0.00949 µM) was 18%. The viability, T/C (second compound 0.03 µM, first compound 0.03 µM) was 16.2%, the viability, T/C (second compound 0.03 µM, first compound 0.0949 µM) was 9.36% and the viability, T/C (second compound 0.03 µM, first compound 0.3 µM) was 8.84%. The viability, T/C (second compound 0.0949 µM, first compound 0.000949 µM) was 19.7%, the viability, T/C (second compound 0.0949 µM, first compound 0.003 µM) was 19.7% and the viability, T/C (second compound 0.0949 µM, first compound 0.00949 µM) was 17.2%. For the same compound, the viability, T/C (second compound 0.0949 µM, first compound 0.03 µM) was 15.3%, the viability, T/C (second compound 0.0949 µM, first compound 0.0949 µM) was 10.7% and the viability, T/C (second compound 0.0949 µM, first compound 0.3 µM) was 9.1%. It also gave a viability, T/C (second compound 0.3 µM, first compound 0.000949 µM) of 21.8%, a viability, T/C (second compound 0.3 µM, first compound 0.003 µM) of 18% and a viability, T/C (second compound 0.3 µM, first compound 0.00949 µM) of 16.4%. It also gave a viability, T/C (second compound 0.3 µM, first compound 0.03 µM) of 14.2%, a viability, T/C (second compound 0.3 µM, first compound 0.0949 µM) of 10.8% and a viability, T/C (second compound 0.3 µM, first compound 0.3 µM) of 7.87%.
With `O=C(c1ccc(F)c(F)c1Nc1ccc(I)cc1F)N1CC(O)([C@@H]2CCCCN2)C1` + CCn1c(-c2cccnc2C(C)OC)c2c3cc(ccc31)N1CCOC(CC(NC(=O)C(C(C)C)N(C)C(=O)C3(F)CCN(C(=O)C#CC(C)(C)N(C)C)CC3)C(=O)N3CCCC(N3)C(=O)OCC(C)(C)C2)C1 the IC50 (second compound 0.000949 µM) was under 3.16 nM, the IC50 (second compound 0.003 µM) was 21.9 nM and the IC50 (second compound 0.00949 µM) was under 3.16 nM. It also gave an IC50 (second compound 0.03 µM) of under 3.16 nM, an IC50 (second compound 0.0949 µM) of under 3.16 nM and an IC50 (second compound 0.3 µM) of under 3.16 nM. The viability, T/C (second compound 0.000949 µM, first compound 0.00316 µM) was 20.5%, the viability, T/C (second compound 0.000949 µM, first compound 0.01 µM) was 18.8% and the viability, T/C [1] was 13.7%. It also gave a viability, T/C [2] of 17.1%, a viability, T/C [3] of 12.5% and a viability, T/C [4] of 7.9%. The viability, T/C (second compound 0.003 µM, first compound 0.00316 µM) was 94.2%, the viability, T/C (second compound 0.003 µM, first compound 0.01 µM) was 64.1% and the viability, T/C [5] was 37.4%. It also gave a viability, T/C [6] of 38%, a viability, T/C [7] of 35.4% and a viability, T/C [8] of 18.4%. The viability, T/C (second compound 0.00949 µM, first compound 0.00316 µM) was 18.6%, the viability, T/C (second compound 0.00949 µM, first compound 0.01 µM) was 15.4% and the viability, T/C [9] was 17%. It also gave a viability, T/C [10] of 14.6%, a viability, T/C [11] of 11.6% and a viability, T/C [12] of 9.5%. The viability, T/C (second compound 0.03 µM, first compound 0.00316 µM) was 18.3%, the viability, T/C (second compound 0.03 µM, first compound 0.01 µM) was 17.9% and the viability, T/C [13] was 18.8%. For the same compound, the viability, T/C [14] was 12.8%, the viability, T/C [15] was 12.4% and the viability, T/C [16] was 12.2%. For the same compound, the viability, T/C (second compound 0.0949 µM, first compound 0.00316 µM) was 19.4%, the viability, T/C (second compound 0.0949 µM, first compound 0.01 µM) was 17.1% and the viability, T/C [17] was 15.8%. For the same compound, the viability, T/C [18] was 13.6%, the viability, T/C [19] was 12.9% and the viability, T/C [20] was 15.1%. The viability, T/C (second compound 0.3 µM, first compound 0.00316 µM) was 17.9%, the viability, T/C (second compound 0.3 µM, first compound 0.01 µM) was 20% and the viability, T/C [21] was 15.8%. It also gave a viability, T/C [22] of 15.7%, a viability, T/C [23] of 13.7% and a viability, T/C [24] of 14%.
